“Also recorded” adds a separate entry of the source.
Experiments:
[1] = test system: vascular calcification (aortae and carotid arteries); experiment: Experiment 4: vascular calcification (Von Kossa staining) in rats treated with warfarin, vitamin K-1 and increasing doses of MK-4 (KW model); format: in vivo, male Lewis rats
From the text: In the present invention the “Vitamin K1 plus warfarin” model was used to test effects of isoprenyl derivatives on vascular calcification. This model is also referred to as the “KW model for calcification” or “KW model”. Because of the parallels between vascular calcification and calcium metabolism in bone, the model is regarded to be valid for describing potential effects on bone. Whereas in this model the bone deformations will not become visible before 9 months of treatment, calcification of the large arteries is usually apparent within 4 weeks of treatment. This model therefore provides an excellent in vivo model to test the compounds according to the invention for their tissue distribution, toxicity and effectivity. […] It was shown that calcification was not inhibited by vitamin K-1 in doses going up from 40 to 600 mg/kg of body weight per day. The highest dose was 15,000 times the amount required for normal blood coagulation in untreated animals, and 15 times the amount required for normal blood coagulation in warfarin-treated animals. At these high intakes all tissues contain excessive amounts of vitamin K-1, which apparently are incapable of supporting the synthesis of inhibitors of calcium precipitation such as the Gla-protein MGP. […]

postmenopausal bone loss = conditions: cited from earlier work
prothrombin [2] = experiment: Experiment 2: dietary requirement of vitamin K-1 in warfarin-treated rats, plasma prothrombin level; format: in vivo, male Lewis rats
Protocol: In experiment 2 the dietary requirement of vitamin K-1 in warfarin-treated (300 mg Vitamin K-1 per kg body weight per day) male Lewis rats, 6 weeks of age, was measured on the basis of blood coagulation tests after a treatment period of 4 weeks. At a level of 40 mg vitamin K-1 per kg body weight per day a normal prothrombin synthesis was maintained.
Thirty six male Lewis rats (6 weeks of age) were treated with an excess of warfarin (300 mg vitamin K-1 per kg body weight per day) to block all dithiol reductase present in the tissues. They were subdivided into groups of 6 animals each and received vitamin K-1 in the following doses: 20, 40, 70, 100, 300, and 600 mg/kg body weight per day. […] It was concluded that […] of vitamin K-1 per kg body weight per day effectively protects the animals against warfarin-induced bleeding.

prothrombin [3] = experiment: Experiment 1: dietary requirement of vitamin K-1 in untreated rats, prothrombin concentration (one-stage coagulation assay); format: in vivo, male Lewis rats; conditions: for Mean prothrombin concentration: four weeks
Protocol: In experiment 1 the dietary requirement of vitamin K-1 was measured in untreated male Lewis rats, 6 weeks of age, on the basis of blood coagulation tests after a treatment period of 4 weeks. At an intake of 40 microgram vitamin K-1 per kg body weight per day, the synthesis of coagulation factors had reached its (maximal) plateau level.
Male rats of the Lewis strain were used throughout our experiments, six animals per group. Thirty six animals entered the experiment at the age of 6 weeks and received a vitamin K deficient diet (Hope Farms, Woerden, The Netherlands) for one week to deplete them from endogenous vitamin K. During the experiment they were housed in coprophagy-preventing cages. After this period citrated blood was taken from the tail vein, and the prothrombin concentrations (one-stage coagulation assay) were checked to be below the normal reference value. At that time they received vitamin K-deficient food to which controlled amounts of vitamin K-1 were added in the following doses: 0.1, 0.2, 0.4, 0.6, 0.8, and 1.0 mg/kg of food. The daily food intake was recorded, and the body weight of the animals was measured regularly. After four weeks of treatment at the indicated doses again blood was taken and prothrombin concentrations were measured. Mean prothrombin concentrations in the groups were: 23%, 48%, 82%, 98%, 102%, and 99% of pooled normal rat reference plasma. […] This amount corresponds with an intake of 40 micrograms of vitamin K-1 per kg body weight per day.

[4] = test system: vascular calcification (aortic arch and carotid arteries); experiment: Experiment 3: vascular calcification (Von Kossa staining) in rats treated with warfarin and increasing doses of vitamin K-1; format: in vivo, male Lewis rats
From the text: In the present invention the “Vitamin K1 plus warfarin” model was used to test effects of isoprenyl derivatives on vascular calcification. This model is also referred to as the “KW model for calcification” or “KW model”. Because of the parallels between vascular calcification and calcium metabolism in bone, the model is regarded to be valid for describing potential effects on bone.
The same animals described in experiment 2 were killed, and the aortic arch and carotid arteries were removed and stained for calcium deposits using the Von Kossa staining and histochemical inspection.

In the case of `CC(C)=CCC/C(C)=C/CC/C(C)=C/CC/C(C)=C/CC1=C(C)C(=O)c2ccccc2C1=O` [MK-4, 2-methyl 3-geranylgeranyl naphthoquinone], the “Inhibition of vascular calcification” value ([1]; KW model, addition of 10 mg/kg body weight per day of MK-4) is given as “effectively inhibited all vascular calcification”, the “Vascular calcification (Von Kossa staining)” value ([1]; warfarin 300 mg/kg/d plus vitamin K-1 70 mg/kg/d plus MK-4 10, 20 and 50 mg per kg body weight per day, 6 weeks) is given as “no calcification” and the Action on bone (postmenopausal bone loss; high doses of MK-4 (45 mg/day)) is given as “comparable with that of bisphosphonates”. The “Effect on postmenopausal bone loss” value (postmenopausal bone loss; high doses) was “almost completely inhibit postmenopausal bone loss”.
With `CC1=C(C/C=C(\C)CCC[C@H](C)CCC[C@H](C)CCCC(C)C)C(=O)c2ccccc2C1=O` [vitamin K-1] the “Dose that effectively protects the animals against warfarin-induced bleeding” value (prothrombin [2]) was 70 mg of vitamin K-1 per kg body weight per day, the “Level at which a normal prothrombin synthesis was maintained” value (prothrombin [2]; 4 weeks) was 40 mg vitamin K-1 per kg body weight per day and the Circulating prothrombin concentration (prothrombin [2]; 20 and 40 mg of vitamin K-1 per day) was 60 % of normal. The Circulating prothrombin concentration (prothrombin [2]; all higher intakes (70, 100, 300, 600 mg/kg body weight per day)) was “comparable to normal reference values”, the “Diet content sufficient to maintain normal prothrombin synthesis” value (prothrombin [3]; untreated rats, content in food) was 0.6 mg of vitamin K-1 per kg and the Mean prothrombin concentration (prothrombin [3]; vitamin K-1 0.1 mg/kg of food, after vitamin K deficient diet) was 23 % of pooled normal rat reference plasma. The Mean prothrombin concentration (prothrombin [3]; vitamin K-1 0.2 mg/kg of food) was 48 % of pooled normal rat reference plasma, the Mean prothrombin concentration (prothrombin [3]; vitamin K-1 0.4 mg/kg of food) was 82 % of pooled normal rat reference plasma and the Mean prothrombin concentration (prothrombin [3]; vitamin K-1 0.6 mg/kg of food) was 98 % of pooled normal rat reference plasma. For the same compound, the Mean prothrombin concentration (prothrombin [3]; vitamin K-1 0.8 mg/kg of food) was 102 % of pooled normal rat reference plasma, the Mean prothrombin concentration (prothrombin [3]; vitamin K-1 1.0 mg/kg of food) was 99 % of pooled normal rat reference plasma and the Inhibition of calcification ([4]; KW model, vitamin K-1 doses going up from 40 to 600 mg/kg of body weight per day) was “not inhibited”. For the same compound, the “Vascular calcification (Von Kossa staining)” value ([4]; warfarin 300 mg/kg/d plus vitamin K-1 20, 40, 70, 100, 300 and 600 mg/kg body weight per day, 4 weeks) was “substantial calcification; also recorded: Calcification of the media (notably the elastic lamelae) was found in all animals”.

Source: patent US20050176778A1, “Isoprenyl derivatives and their use in the title treatment and prevention of osteoporosis and cardiovascular calcification” (Vitak BV, priority 2001, published 2005)
